We go through 25 compounds from patent US8969373B2, “HCV protease inhibitors” (Shanghai Tangrun Pharmaceuticals Co., Ltd., priority 2011, dated 2015).

In assay [1] the test system is HCV replicon (pSGR-399LM) in Huh7 cells. The assay can be described thus: Inhibitory activity in the HCV replicon system (Renilla luciferase). The class given is cell-based. The note with it: Hepatitis C virus, Huh-7, pSGR-399LM replicon Huh7 cells, 72 hr. As for the experimental part: The Inhibitory Activity of Compounds in the HCV Replicon System
HCV replicon cell-line: The Huh7 cells were transfected with pSGR-399LM replicon DNA and cultured in the DMEM containing 10% FBS and 0.5 mg/mL G418. The cells were split at 1:3 to 1:5 every 3-4 days. The transfected cells were seeded in 96-well plates and cultured at 37° C., 5% CO2 for 24 hr.
Treatment with samples: To the HCV replicon Huh7 cells-line were added different concentration of the samples (i.e. compound Ik, wherein k=1, 2, 3 . . . 42), the each concentration for duplicate, and set no sample control wells. The concentration started at 400 nM, with quarter dilution to form five different concentrations of samples, that is 400 nM, 100 nM, 25 nM, 6.25 nM and 1.56 nM. The samples were added separately, and continued to incubated for 72 hr.
Fluorescence detection: After 72 hr treatment with sample, the cells were lysed and added with Renilla luciferase substrate to detect luminescent signal. The relative luminescent unit (RLU) in the luminometer was read out and used to calculate the inhibition rate of HCV.
For orientation: Replicon systems follow genome replication, usually without infectious particles.

In assay [2] the test system is HCV (J399EM virus) in Huh7.5.1 cells. The assay can be described thus: Inhibition of HCV replication in HCV infected human hepatocellular carcinoma cells (Huh7.5.1), HCV-EGFP fluorescence. The class given is cell-based. The note with it: Hepatitis C virus, Huh-7.5.1, 72 h, read-out: HCV infected human hepatocellular carcinoma cells in vitro EC50(nM). As for the experimental part:
In Vitro Inhibitory Activity of Compounds in HCV Replication in HCV Infected Human Hepatocellular Carcinoma Cells (Huh7.5.1)
The preparation of Huh7.5.1cells: Huh 7.5.1 cells were seeded at a 96-well plate with 37 and 5% CO2 for 24 hours incubation.
Virus infection: Using the J399EM virus supernatants (moi≈0.1) to infect Huh7.5.1cells. At the same time, the no virus infected cell will be set up as the control. After 8 hours virus infection, the virus will be washed out with PBS.
Drug treatment: The different doses of samples (i.e. the compound Ik, wherein k=1, 2, 3, . . . 42) were added in J399EM infected Huh7.5.1 cells, the each dose for duplicate. At the same time the no sample added in wells will be set up as the control. The test dose of sample is starting from 25 nM or 400 nM, with quarter dilution, 5 doses of sample will be added in the test wells, respectively, then continued for 72 hours incubation.
HCV-EGFP fluorescence detection: After samples treatment for 72 hours, the autofluorescence of HCV-EGFP were measured by the luminometer with excitation of 488 nm, and emission of 516 nm. The related fluorescence unit (RFU) of samples will be read out and used for calculating the inhibitory rates of compounds in HCV replication.

Where only a bound is given, the exact number is not on record here.

In general, EC50 refers to the concentration needed to bring the measured effect to its halfway point. With `C=C[C@@H]1C[C@]1(NC(=O)[C@@H]1C[C@@H](Oc2cc(-c3ccccc3)nc3c2sc2cccc(Cl)c23)CN1C(=O)[C@@H](NC(=O)OC(C)(C)C)C(C)(C)C)C(=O)NS(=O)(=O)C1CC1` [Compound 1], the EC50 in assay [1] and in assay [2] was 100 to 1000 nM each time.
For the compound `C=C[C@@H]1C[C@]1(NC(=O)[C@@H]1C[C@@H](Oc2cc(-c3ccccc3)nc3c2oc2ccc(OC)cc23)CN1C(=O)[C@@H](NC(=O)OC(C)(C)C)C(C)(C)C)C(=O)NS(=O)(=O)C1CC1` [Compound 3, tert-butyl(S)-1-((2S,4R)-2-((1R,2S)-1-(cyclopropylsulfonylcarbamoyl)-2-vinylcyclopropylcarbamoyl)-4-(8-methoxy-2-phenylbenzofuro [3,2-b]pyridin-4-yloxy)pyrrolidin-1-yl)-3,3-dimethyl-1-oxobutan-2-yl carbamate], the figures for the 50% effective concentration (EC50) in assay [1] and in assay [2] were under 100 nM and 100 to 1000 nM, respectively.
The matching figures for `C=C[C@@H]1C[C@]1(NC(=O)[C@@H]1C[C@@H](Oc2cc(-c3ccccc3)nc3c2oc2ccc(Cl)cc23)CN1C(=O)[C@@H](NC(=O)OC(C)(C)C)C(C)(C)C)C(=O)NS(=O)(=O)C1CC1` [Compound 4, tert-butyl(S)-1-((2S,4R)-4-(8-chloro-2-phenylbenzofuro[3,2-b]pyridin-4-yloxy)-2-((1R,2S)-1-(cyclopropylsulfonylcarbamoyl)-2-vinylcyclopropylcarbamoyl)pyrrolidin-1-yl)-3,3-dimethyl-1-oxobutan-2-yl carbamate]: under 100 nM and 100 to 1000 nM.
The matching figures for `CC(C)(C)OC(=O)N[C@H]1CCCCC/C=C\[C@@H]2C[C@@]2(C(=O)NS(=O)(=O)C2CC2)NC(=O)[C@@H]2C[C@@H](Oc3nc4c5ccccc5oc4c4ccccc34)CN2C1=O` [Compound 6]: under 100 nM and under 100 nM.
The matching figures for `C=C[C@@H]1C[C@]1(NC(=O)[C@@H]1C[C@@H](Oc2cc(-c3ccccc3)nc3c2sc2cc(F)ccc23)CN1C(=O)[C@@H](NC(=O)OC(C)(C)C)C(C)(C)C)C(=O)NS(=O)(=O)C1CC1` [Compound 7]: under 100 nM and under 100 nM.
As for `C=C[C@@H]1C[C@]1(NC(=O)[C@@H]1C[C@@H](Oc2cc(-c3ccccc3)nc3c2oc2ccc(Br)cc23)CN1C(=O)[C@@H](NC(=O)OC(C)(C)C)C(C)(C)C)C(=O)NS(=O)(=O)C1CC1` [Compound 8], the results for the EC50 in assay [1] and in assay [2] were under 100 nM and 100 to 1000 nM, respectively.
With `C=C[C@@H]1C[C@]1(NC(=O)[C@@H]1C[C@@H](Oc2cc(-c3ccccc3)nc3c2sc2ccccc23)CN1C(=O)[C@@H](NC(=O)OC(C)(C)C)C(C)(C)C)C(=O)NS(=O)(=O)C1CC1` [Compound 9], the concentration for a half-maximal effect (EC50) is under 100 nM in assay [1] and 100 to 1000 nM in assay [2].
The matching figures for `CC(C)(C)OC(=O)N[C@H]1CCCCC/C=C\[C@@H]2C[C@@]2(C(=O)NS(=O)(=O)C2CC2)NC(=O)[C@@H]2C[C@@H](Oc3nc4c5ccc(F)cc5sc4c4ccccc34)CN2C1=O` [Compound 10]: under 100 nM and under 100 nM.
The matching figures for `C=C[C@@H]1C[C@]1(NC(=O)[C@@H]1C[C@@H](Oc2nc3c4cc(Cl)ccc4oc3c3ccccc23)CN1C(=O)[C@@H](NC(=O)OC(C)(C)C)C(C)(C)C)C(=O)NS(=O)(=O)C1CC1` [Compound 11]: under 100 nM and 100 to 1000 nM.
On to `C=C[C@@H]1C[C@]1(NC(=O)[C@@H]1C[C@@H](Oc2nc3c4ccc(F)cc4sc3c3ccccc23)CN1C(=O)[C@@H](NC(=O)OC(C)(C)C)C(C)(C)C)C(=O)NS(=O)(=O)C1CC1` [Compound 12], for which the figures for the EC50 in assay [1] and in assay [2] were under 100 nM and 100 to 1000 nM, respectively.
The matching figures for `C=C[C@@H]1C[C@]1(NC(=O)[C@@H]1C[C@@H](Oc2nc3c4cc(Cl)ccc4oc3c3ccccc23)CN1C(=O)[C@@H](CC(=O)OC(C)(C)C)C(C)(C)C)C(=O)NS(=O)(=O)C1CC1` [Compound 13]: 100 to 1000 nM and 100 to 1000 nM.
For the compound `C=C[C@@H]1C[C@]1(NC(=O)[C@@H]1C[C@@H](Oc2nc3c4cc(Cl)ccc4oc3c3ccccc23)CN1C(=O)[C@@H](CC(=O)N1CCCCC1)C(C)(C)C)C(=O)NS(=O)(=O)C1CC1` [Compound 14, (2S,4R)-1-((S)-2-tert-butyl-4-oxo-4-(piperidin-1-yl)butanoyl)-4-(8-chlorobenzofuro[3,2-c]isoquinolin-5-yloxy)-N-((1R,2S)-1-(cyclopropylsulfonylcarbamoyl)-2-vinylcyclopropyl)pyrrolidine-2-carboxamide], the EC50 in assay [1] is under 100 nM; in assay [2], 100 to 1000 nM.
The matching figures for `C=C[C@@H]1C[C@]1(NC(=O)[C@@H]1C[C@@H](Oc2nc3c4cc(OC)ccc4oc3c3ccccc23)CN1C(=O)[C@@H](NC(=O)OC(C)(C)C)C(C)(C)C)C(=O)NS(=O)(=O)C1CC1` [Compound 15]: 100 to 1000 nM and 100 to 1000 nM.
Regarding `CC(C)(C)OC(=O)N[C@H]1CCCCC/C=C\[C@@H]2C[C@@]2(C(=O)NS(=O)(=O)C2CC2)NC(=O)[C@@H]2C[C@@H](Oc3nc4c5ccccc5oc4c4ccc(Br)cc34)CN2C1=O` [Compound 16], the EC50 in assay [1] and in assay [2] was under 100 nM each time.
Take `CC(C)(C)OC(=O)N[C@H]1CCCCC/C=C\[C@@H]2C[C@@]2(C(=O)NS(=O)(=O)C2CC2)NC(=O)[C@@H]2C[C@@H](Oc3nc4c5ccccc5oc4c4ccc(Cl)cc34)CN2C1=O` [Compound 17]: the EC50 in assay [1] and in assay [2] was under 100 nM each time.
On to `COc1ccc2oc3c4ccc(Cl)cc4c(O[C@@H]4C[C@H]5C(=O)N[C@]6(C(=O)NS(=O)(=O)C7CC7)C[C@H]6/C=C\CCCCC[C@H](NC(=O)OC(C)(C)C)C(=O)N5C4)nc3c2c1` [Compound 19], for which the 50% effective concentration (EC50) in assay [1] and in assay [2] was under 100 nM each time.
`C=C[C@@H]1C[C@]1(NC(=O)[C@@H]1C[C@@H](Oc2nc3c4ccccc4oc3c3ccc(Cl)cc23)CN1C(=O)[C@@H](NC(=O)OC1CCCC1)C(C)(C)C)C(=O)NS(=O)(=O)C1CC1` [Compound 20]: the EC50 in assay [1] and in assay [2] was under 100 nM throughout.
Turning to `C=C[C@@H]1C[C@]1(NC(=O)[C@@H]1C[C@@H](Oc2cc(-c3ccccc3)nc3c2oc2ccc(OC)cc23)CN1C(=O)[C@@H](NC(=O)OC1CCCC1)C(C)(C)C)C(=O)NS(=O)(=O)C1CC1` [Compound 21], the concentration for a half-maximal effect (EC50) is under 100 nM in assay [1] and 100 to 1000 nM in assay [2].
Take `C=C[C@@H]1C[C@]1(NC(=O)[C@@H]1C[C@@H](Oc2cc(-c3ccccc3)nc3c2oc2ccc(OC)c(Cl)c23)CN1C(=O)[C@@H](NC(=O)OC1CCCC1)C(C)(C)C)C(=O)NS(=O)(=O)C1CC1` [Compound 22]: the EC50 in assay [1] and in assay [2] was under 100 nM throughout.
In the case of `C=C[C@@H]1C[C@]1(NC(=O)[C@@H]1C[C@@H](Oc2cc(-c3ccccc3)nc3c2oc2ccc(OC)c(Cl)c23)CN1C(=O)[C@@H](NC(=O)OC(C)(C)C)C(C)(C)C)C(=O)NS(=O)(=O)C1CC1` [Compound 23], the half-maximal effective concentration (EC50) in assay [1] and in assay [2] was under 100 nM throughout.
With `C=C[C@@H]1C[C@]1(NC(=O)[C@@H]1C[C@@H](Oc2cc(-c3csc(C(C)C)n3)nc3c2oc2ccc(OC)c(Cl)c23)CN1C(=O)[C@@H](NC(=O)OC(C)(C)C)C(C)(C)C)C(=O)NS(=O)(=O)C1CC1` [Compound 24], the concentration for a half-maximal effect (EC50) in assay [1] and in assay [2] was under 100 nM each time.
In the case of `C=C[C@@H]1C[C@]1(NC(=O)[C@@H]1C[C@@H](Oc2cc(-c3csc(C(C)(C)O)n3)nc3c2oc2ccc(OC)c(Cl)c23)CN1C(=O)[C@@H](NC(=O)OC(C)(C)C)C(C)(C)C)C(=O)NS(=O)(=O)C1CC1` [Compound 25], the half-maximal effective concentration (EC50) in assay [1] and in assay [2] was under 100 nM each time.
Regarding `C=C[C@@H]1C[C@]1(NC(=O)[C@@H]1C[C@@H](Oc2cc(-c3csc(C(C)(C)O)n3)nc3c2oc2ccc(OC)c(Br)c23)CN1C(=O)[C@@H](NC(=O)OC(C)(C)C)C(C)(C)C)C(=O)NS(=O)(=O)C1CC1` [Compound 26], the EC50 in assay [1] and in assay [2] was under 100 nM each time.
With `C=C[C@@H]1C[C@]1(NC(=O)[C@@H]1C[C@@H](Oc2cc(-c3ccccc3)nc3c2oc2ccc(OC)c(Br)c23)CN1C(=O)[C@@H](NC(=O)OC(C)(C)C)C(C)(C)C)C(=O)NS(=O)(=O)C1CC1` [Compound 27], the EC50 in assay [1] and in assay [2] was under 100 nM each time.
Take `C=C[C@@H]1C[C@]1(NC(=O)[C@@H]1C[C@@H](Oc2cc(-c3ccccc3)nc3c2oc2ccc(OC)c(Br)c23)CN1C(=O)[C@@H](NC(=O)OC1CCCC1)C(C)(C)C)C(=O)NS(=O)(=O)C1CC1` [Compound 28]: the EC50 in assay [1] and in assay [2] was under 100 nM in each case.
